{"source": "patent US20210308196A1", "about": "“COMPOSITIONS AND METHODS TO PROMOTE HOST DEFENSE AND STIMULATE, EXPAND, AND/OR RESET T CELL REPERTOIRES” (EVOLVE BIOSYSTEMS, INC., priority 2018, published 2021)", "key": {"diabetes mellitus": {"tested_on": "diabetes mellitus", "assay": "Prevention of type 1 diabetes in NOD mice", "type": "in vivo, mouse", "details": "compared to control mice", "source_text": "Germ-free non-obese diabetic (NOD) mouse pups are weaned 3 weeks after birth and put on a polysaccharide-free diet that contains Vitamin A. As soon as the mouse pups are weaned, they are gavaged with a dysbiotic (no Bifidobacterium sp. and high proteobacteria) human infant microbiome at Day 1 of the experiment. The mice are divided into 4 groups: control, control plus LNnT, B. infantis, and B. infantis plus LNnT. Mice are given the composition for 21 days. All Groups receive B. infantis or a placebo every 3 days by gavage; the LNnT or placebo is added to the drinking water. Additional mice are divided into 2 groups These groups are gavaged with a healthy human infant microbiome (Bifidobacterium species) at day 21 of the experiment. The mice are then either fed placebo or LNnT in their drinking and receive vitamin A in their chow. Mice are monitored for diabetes with weekly tail vein blood glucose measurements and euthanized following two consecutive daily readings of >[…]. […] Plasma is evaluated for cytokines and innate immune factors. Fecal samples are taken every day and evaluated using qPCR and/or 16s and/or shotgun sequencing for microbial colonization. […]"}, "peanut extract allergy": {"tested_on": "peanut extract allergy", "assay": "Reversal of murine peanut allergy", "type": "in vivo, mouse", "details": "previously sensitized animals, compared to control mice", "procedure": "Germ-free pups are weaned 3 weeks after birth and put on a polysaccharide-free diet. Mice are gavaged with a dysbiotic microbiome of Example 3 at Day 1. Mice receive intragastric gavage of peanut extract on day 1 and day 7 at 5 mg/mouse and then 25 mg/mouse at week 5 with 10 μg of Cholera toxin. Elicitation of reaction is performed at eight to ten weeks using intragastric gavage of 10 mg/mouse food antigen (e.g., peanut extract) with vehicle (PBS). At 10 weeks, mice of the test group are fed B. infantis, while control mice receive vehicle gavage only. All mice have access ad labium to LNnT-infused drinking water for a period of 21 days. The mice are re-challenged with the food antigen via intragastric gavage of 10 mg/mouse peanut extract with vehicle (PBS). Anaphylaxis symptoms are evaluated, and then mice are necropsied. Plasma samples are collected for evaluation of histamine and IgE concentrations. White blood cells are isolated for PBMC characterization and evaluation of regulatory T cell population expansion using flow cytometry specific for CD4, CD25, Foxp3, Helios, Neuropilin, CD8, CD44, CD62L, IFNgamma, IL-17."}}}
{"substance": "Bifidobacterium longum subsp. infantis EVC001 [B. infantis EVC001]", "values": [{"measurement": "Incidence of the development of diabetes mellitus", "setting": "diabetes mellitus", "value": "reduces"}, {"measurement": "Inflammatory responses to the food antigen", "setting": "peanut extract allergy", "value": "reduces"}]}
